Laboratory results as given in US11965039B2, “Compstatin analogues and their medical uses” (priority 2018, dated 2024).
Positions of bridges follow the written chain, without caps; N, C: chain ends. Non-standard residues stand in square brackets, D forms with d. Residues, ends and D or L forms follow the SMILES beside them. Trp(1-Me) = Cn1cc(C[C@H](N)C(=O)O)c2ccccc21; 2Nal = N[C@@H](Cc1ccc2ccccc2c1)C(=O)O; Sar = CNCC(=O)O

Tests used:
[1] = test system: classical complement pathway; experiment: In vitro haemolysis assay (inhibition of classical complement pathway); assay type: cell-based, human; settings: human serum, sensitized sheep red blood cells; Table 3, given as upper bounds; read-out: IC50, inhibition of hemolysis
How it was run: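 Compound dilutions preincubated 15 min at room temperature with diluted human serum (titrated per batch for 70-90% maximal haemolysis), then antibody-sensitized sheep RBC (10^7/well) added for 30 min at 37 °C in Tris/casein buffer, pH 7.4. Stopped with EDTA; haemolysis read at 405 nm; IC50 by 4PL fit.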

[2] = Solubility test at 10 mg/mL (visual inspection and light scattering); assay type: physicochemical; settings: for Solubility, Condition 1: Acetate pH 4; for Solubility, Condition 2: Acetate pH 5; for Solubility, Condition 3: Phosphate pH 6; for Solubility, Condition 4: Phosphate pH 7; for Solubility, Condition 5: Phosphate pH 7.5
Method: The solubility of compounds was assessed by measuring light scattering over a pH interval from pH 4 to pH 7.5.
Compounds were dissolved in a stock solution of 20 mg/mL in H2O at pH 2.5 or pH 10. These stock solutions were diluted 1:1 with 200 mM buffered solution to reach a final solution of 10 mg/mL compound in 100 mM buffer. The 5 investigated conditions were (1) acetate pH 4.0, (2) acetate pH 5.0, (3) phosphate pH 6.0, (4) phosphate pH 7 and (5) phosphate pH 7.5.
Visual inspection included manually checking the 96 well plate for wells that are clear or non-clear. In addition to this a picture of the 96 well plate is taken.
Absorbance was measured at four wavelengths: 280 nm, 325 nm, 340 nm and 360 nm in an UV transparent 96 well microplate in a SpectraMax 190 microplate reader (Molecular Devices).
The criteria for this was a combination of visual inspection and light scattering not exceeding 0.1 AU, where values below 0.1 AU are good in visually clear samples.

Structure (SMILES): CC[C@H](C)[C@H](NC(=O)[C@H](C)NC(=O)[C@H](CO)NC(=O)CNC(=O)[C@H](CCC(=O)O)NC(C)=O)C(=O)N[C@H]1CSSC[C@@H](C(=O)N(C)CC(=O)N[C@@H](CCC(=O)O)C(N)=O)NC(=O)[C@H](CCCNC(=N)N)NC(=O)[C@H](Cc2c[nH]cn2)NC(=O)[C@H](CCC(=O)O)NC(=O)CNC(=O)[C@H](Cc2c[nH]c3ccccc23)NC(=O)[C@H](CC(=O)O)NC(=O)[C@H](CCC(N)=O)NC(=O)[C@H](Cc2ccc3ccccc3c2)NC(=O)[C@H]([C@@H](C)CC)NC1=O [Compound 50] (Ac-EGSAICI[2Nal]QDWGEHRC[Sar]E-NH2; disulfide 6-16)
- IC50 [1]: < 100 nM
- Solubility, Condition 1 [2]: − (“−” denotes lack of solubility at the given condition, as UV absorbance at 340 nm exceeds 0.1 AU and/or it is visibly turbid or contains particles)
- Solubility, Condition 2 [2]: − (“−” denotes lack of solubility at the given condition, as UV absorbance at 340 nm exceeds 0.1 AU and/or it is visibly turbid or contains particles)
- Solubility, Condition 3 [2]: + (“+” denotes solubility at the given condition, as determined by UV absorbance being less than 0.1 AU at 340 nm and the sample being clear when manually inspected)
- Solubility, Condition 4 [2]: + (“+” denotes solubility at the given condition, as determined by UV absorbance being less than 0.1 AU at 340 nm and the sample being clear when manually inspected)
- Solubility, Condition 5 [2]: + (“+” denotes solubility at the given condition, as determined by UV absorbance being less than 0.1 AU at 340 nm and the sample being clear when manually inspected)

Structure (SMILES): CC[C@H](C)[C@@H]1NC(=O)[C@@H](NC(=O)[C@@H](NC(=O)[C@H](CCC(=O)O)NC(=O)CNC(=O)[C@H](CCC(=O)O)NC(C)=O)[C@@H](C)CC)CSSC[C@@H](C(=O)N[C@H](C(N)=O)[C@@H](C)O)NC(=O)[C@H](CCCNC(=N)N)NC(=O)[C@H](Cc2c[nH]cn2)NC(=O)[C@H](CCC(=O)O)NC(=O)CNC(=O)[C@H](Cc2c[nH]c3ccccc23)NC(=O)[C@H](CC(=O)O)NC(=O)[C@H](CCC(N)=O)NC(=O)[C@H](Cc2c[nH]c3ccccc23)NC1=O [Compound 30] (Ac-EGEICIWQDWGEHRCT-NH2; disulfide 5-15)
- IC50 [1]: < 100 nM
- Solubility, Condition 1 [2]: − (“−” denotes lack of solubility at the given condition, as UV absorbance at 340 nm exceeds 0.1 AU and/or it is visibly turbid or contains particles)
- Solubility, Condition 2 [2]: − (“−” denotes lack of solubility at the given condition, as UV absorbance at 340 nm exceeds 0.1 AU and/or it is visibly turbid or contains particles)
- Solubility, Condition 4 [2]: + (“+” denotes solubility at the given condition, as determined by UV absorbance being less than 0.1 AU at 340 nm and the sample being clear when manually inspected)
- Solubility, Condition 5 [2]: + (“+” denotes solubility at the given condition, as determined by UV absorbance being less than 0.1 AU at 340 nm and the sample being clear when manually inspected)

Structure (SMILES): CC[C@H](C)[C@@H]1NC(=O)[C@@H](NC(=O)[C@H](Cc2ccccc2)NC(=O)[C@H](CCC(=O)O)NC(=O)[C@H](CO)NC(C)=O)CSSC[C@@H](C(=O)N(C)CC(=O)N[C@@H](CCC(=O)O)C(N)=O)NC(=O)[C@H](CCCNC(=N)N)NC(=O)[C@H](Cc2c[nH]cn2)NC(=O)[C@H](CCC(=O)O)NC(=O)CNC(=O)[C@H](Cc2c[nH]c3ccccc23)NC(=O)[C@H](CC(=O)O)NC(=O)[C@H](CCC(N)=O)NC(=O)[C@H](Cc2cn(C)c3ccccc23)NC1=O [Compound 78] (Ac-SEFCI[Trp(1-Me)]QDWGEHRC[Sar]E-NH2; disulfide 4-14)
- IC50 [1]: < 100 nM
- Solubility, Condition 1 [2]: − (“−” denotes lack of solubility at the given condition, as UV absorbance at 340 nm exceeds 0.1 AU and/or it is visibly turbid or contains particles)
- Solubility, Condition 2 [2]: − (“−” denotes lack of solubility at the given condition, as UV absorbance at 340 nm exceeds 0.1 AU and/or it is visibly turbid or contains particles)
- Solubility, Condition 3 [2]: + (“+” denotes solubility at the given condition, as determined by UV absorbance being less than 0.1 AU at 340 nm and the sample being clear when manually inspected)
- Solubility, Condition 4 [2]: + (“+” denotes solubility at the given condition, as determined by UV absorbance being less than 0.1 AU at 340 nm and the sample being clear when manually inspected)
- Solubility, Condition 5 [2]: + (“+” denotes solubility at the given condition, as determined by UV absorbance being less than 0.1 AU at 340 nm and the sample being clear when manually inspected)

Structure (SMILES): CC[C@H](C)[C@@H]1NC(=O)[C@@H](NC(=O)[C@H](Cc2ccc(O)cc2)NC(C)=O)CSSC[C@@H](C(=O)N[C@H](C(=O)NCC(=O)N[C@@H](C)C(=O)N[C@@H](CCC(=O)O)C(=O)N[C@@H](CO)C(N)=O)[C@@H](C)O)NC(=O)[C@H](CCCNC(=N)N)NC(=O)[C@H](Cc2c[nH]cn2)NC(=O)[C@H](CCC(=O)O)NC(=O)CNC(=O)[C@H](Cc2c[nH]c3ccccc23)NC(=O)[C@H](CC(=O)O)NC(=O)[C@H](CCC(N)=O)NC(=O)[C@H](Cc2c[nH]c3ccccc23)NC1=O [Compound 66] (Ac-YCIWQDWGEHRCTGAES-NH2; disulfide 2-12)
- IC50 [1]: < 100 nM
- Solubility, Condition 1 [2]: − (“−” denotes lack of solubility at the given condition, as UV absorbance at 340 nm exceeds 0.1 AU and/or it is visibly turbid or contains particles)
- Solubility, Condition 2 [2]: − (“−” denotes lack of solubility at the given condition, as UV absorbance at 340 nm exceeds 0.1 AU and/or it is visibly turbid or contains particles)
- Solubility, Condition 3 [2]: + (“+” denotes solubility at the given condition, as determined by UV absorbance being less than 0.1 AU at 340 nm and the sample being clear when manually inspected)
- Solubility, Condition 4 [2]: + (“+” denotes solubility at the given condition, as determined by UV absorbance being less than 0.1 AU at 340 nm and the sample being clear when manually inspected)
- Solubility, Condition 5 [2]: + (“+” denotes solubility at the given condition, as determined by UV absorbance being less than 0.1 AU at 340 nm and the sample being clear when manually inspected)

Structure (SMILES): CC[C@H](C)[C@@H]1NC(=O)[C@@H](NC(=O)CN(C)C(=O)[C@H](CCC(=O)O)NC(=O)[C@H](CO)NC(C)=O)CSSC[C@@H](C(=O)N(C)CC(=O)N[C@@H](CCC(=O)O)C(=O)N[C@@H](C)C(N)=O)NC(=O)[C@H](CCCNC(=N)N)NC(=O)[C@H](Cc2c[nH]cn2)NC(=O)[C@H](CCC(=O)O)NC(=O)CNC(=O)[C@H](Cc2c[nH]c3ccccc23)NC(=O)[C@H](CC(=O)O)NC(=O)[C@H](CCC(N)=O)NC(=O)[C@H](Cc2cn(C)c3ccccc23)NC1=O [Compound 81] (Ac-SE[Sar]CI[Trp(1-Me)]QDWGEHRC[Sar]EA-NH2; disulfide 4-14)
- IC50 [1]: < 100 nM
- Solubility, Condition 1 [2]: − (“−” denotes lack of solubility at the given condition, as UV absorbance at 340 nm exceeds 0.1 AU and/or it is visibly turbid or contains particles)
- Solubility, Condition 2 [2]: − (“−” denotes lack of solubility at the given condition, as UV absorbance at 340 nm exceeds 0.1 AU and/or it is visibly turbid or contains particles)
- Solubility, Condition 3 [2]: + (“+” denotes solubility at the given condition, as determined by UV absorbance being less than 0.1 AU at 340 nm and the sample being clear when manually inspected)
- Solubility, Condition 4 [2]: + (“+” denotes solubility at the given condition, as determined by UV absorbance being less than 0.1 AU at 340 nm and the sample being clear when manually inspected)
- Solubility, Condition 5 [2]: + (“+” denotes solubility at the given condition, as determined by UV absorbance being less than 0.1 AU at 340 nm and the sample being clear when manually inspected)

Structure (SMILES): CC[C@H](C)[C@@H]1NC(=O)[C@@H](NC(=O)[C@H](Cc2ccc(O)cc2)NC(C)=O)CSSC[C@@H](C(=O)N[C@H](C(=O)N[C@@H](CCC(=O)O)C(=O)N[C@@H](C)C(=O)NCC(=O)N[C@@H](CO)C(N)=O)[C@@H](C)O)NC(=O)[C@H](CCCNC(=N)N)NC(=O)[C@H](Cc2c[nH]cn2)NC(=O)[C@H](CCC(=O)O)NC(=O)CNC(=O)[C@H](Cc2c[nH]c3ccccc23)NC(=O)[C@H](CC(=O)O)NC(=O)[C@H](CCC(N)=O)NC(=O)[C@H](Cc2cn(C)c3ccccc23)NC1=O [Compound 68] (Ac-YCI[Trp(1-Me)]QDWGEHRCTEAGS-NH2; disulfide 2-12)
- IC50 [1]: < 100 nM
- Solubility, Condition 1 [2]: − (“−” denotes lack of solubility at the given condition, as UV absorbance at 340 nm exceeds 0.1 AU and/or it is visibly turbid or contains particles)
- Solubility, Condition 2 [2]: − (“−” denotes lack of solubility at the given condition, as UV absorbance at 340 nm exceeds 0.1 AU and/or it is visibly turbid or contains particles)
- Solubility, Condition 3 [2]: + (“+” denotes solubility at the given condition, as determined by UV absorbance being less than 0.1 AU at 340 nm and the sample being clear when manually inspected)
- Solubility, Condition 4 [2]: + (“+” denotes solubility at the given condition, as determined by UV absorbance being less than 0.1 AU at 340 nm and the sample being clear when manually inspected)
- Solubility, Condition 5 [2]: + (“+” denotes solubility at the given condition, as determined by UV absorbance being less than 0.1 AU at 340 nm and the sample being clear when manually inspected)
